The values below come from patent US8530454B2, “Use of 2,5-dihydroxybenzene compounds and derivatives for the treatment of psoriasis” (Amderma Pharmaceuticals, LLC, priority 2006, dated 2013).

For one assay, the system named is rat glioma C6 cells. In words: Rat glioma C6 cell proliferation, crystal violet staining. The format is cell-based. Conditions: 48 h; for C6 cell proliferation (percentage of control absorbance at 595 nm): 500 μM, p<0.001 vs control (FIG. 12). The procedure: The cell line used was rat glioma C6 cells. The cells were cultured as previously described (Cuevas P et al. Neurol Res, 2005). The cells were cultured as adherent cells in Dulbecco's modified Eagle's medium, supplemented with 7.5% (v/v) of fetal bovine serum, 10 μg/ml of streptomycin and 10 units/ml of penicillin. The tumor cells were seeded in 24-well plates at a density of 10,000 cells/well, and were incubated at 37° C. in a humidified chamber with 5% CO2. Once adhered, the cells were treated or not (controls) with 2,5-dihydroxybenzoate at 100, 200, 500 or 1000 μM and they were allowed to proliferate for 48 h. After this time the glioma cell proliferation was evaluated by means of staining the fixed cells with crystal violet. The number of cells is proportional to the amount of retained dye, which was spectrophotometrically determined by measuring the absorbance at 595 nm once the dye was extracted from the cells.
The cell line used was the C6 cell line and the experiment was carried out as described in Example 2. Once adhered, the cells were treated or not (controls) with increasing concentrations of 2,5-DHC (10, 25, 50 and 100 μM) and they were allowed to proliferate for 48 h. After this time the glioma cell proliferation was evaluated by means of staining the fixed cells with crystal violet. The number of cells is proportional to the amount of retained dye, which was determined spectrophotometrically by measuring absorbance at 595 nm once the dye was extracted from the cells.
The cell line used was the C6 cell line and the experiment was carried out as described in examples 2 and 3. Once adhered, the cells were treated or not (controls) with (5A-2HBS) (500 μM) or (2A-5HBS) (500 μM) and they were allowed to proliferate for 48 h. After this time the glioma cell proliferation was evaluated by means of staining the fixed cells with crystal violet. The number of cells is proportional to the amount of retained dye, which was determined spectrophotometrically by measuring the absorbance at 595 nm once the dye was extracted from the cells.

Assay [1] deals with bFGF-induced fibrosis in rat adipose tissue. In words: bFGF-induced fibrosis around subcutaneously implanted gelatin sponges. It counts as in vivo, Sprague-Dawley rats. The conditions noted are these: 100 μM in sponge with bFGF and heparin, 7 days, vs bFGF alone. The protocol: Sterile gelatin sponges (1 mm^3; Curaspon Dental, Clinimed Holding, Zwanenburg, The Netherlands) were subcutaneously implanted in the dorsal region of the neck in Sprague-Dawley rats after the induction of intraperitoneal anesthesia. The animals were split into two groups: group A, the sponges were moistened with 200 μl of saline solution which contained 25 μg/ml of heparin and 10 μg/ml of basic FGF (bFGF); group B, the sponges were moistened in the same solution as in group A, but which solution farther contained 2,5-dihydroxybenzoate (100 μM). After 7 days, the sponges and the surrounding subcutaneous fat were removed and histologically analyzed.

Assay [2] concerns mitogenesis induced by fibroblast growth factor-1 (FGF-1) in Balb/c 3T3 fibroblasts. In words: Inhibition of FGF-1-induced mitogenesis in quiescent Balb/c 3T3 fibroblasts. The format is cell-based. Conditions: quiescent Balb/c 3T3 cultures; potassium salts, calcium salt for 2-acetoxy-5-hydroxybenzene sulfonate. The procedure:
The evaluated compounds were used in the form of potassium salt, except in the first case which used calcium salt. The experiments were carried out as described in Fernández-Tornero C et al. J Biol Chem, 2003.

Assay [3] has as its target fibroblast growth factor-1 (FGF-1) (Homo sapiens, UniProt P05230). The assay is described as follows: Crystal diffraction of co-crystal complexes with FGF-1. The format is binding. The conditions noted are these: electron density contoured at 1σ; for acetoxyl groups retained when bound to FGF-1: co-crystal; for binding site on FGF-1 in the co-crystal: reference lysine 132. The procedure:
Based on the crystal diffraction of the FGF-1:2-acetoxy-5-hydroxybenzene sulfonic acid, FGF-1:5-acetoxy-2-hydroxybenzene sulfonic acid and FGF-1:2,5-diacetoxybenzene sulfonic acid complexes, the structures of the complexes were calculated and represented. FIGS. 13, 14 and 15, which show the surface of the dyed protein according to its electrostatic potential (light grey, negative charge; dark grey, positive charge; white, regions with no charge), show the manner in which 2-acetoxy-5-hydroxybenzene sulfonic acid, 5-acetoxy-2-hydroxybenzene sulfonic acid and 2,5-diacetoxybenzene sulfonic acid interact, respectively, with FGF-1.

In assay [4] the test system is tumor cells of subcutaneous gliomas. The assay is described as follows: Apoptosis in sections of established subcutaneous gliomas (hematoxylin and eosin). It counts as in vivo, rat. The conditions noted are these: 100 mg/kg/day i.p. for 10 days, vs carrier (very scarce). The source says:
Tumor cells elude the programmed cell death process or apoptosis that normal cells experience. Apoptosis induction in tumor cells is one way to confront the development of a tumor. To evaluate the effect of potassium 2,5-dihydroxybenzene sulfonate […] on tumor cell apoptosis, 6 μm thick sections of the subcutaneous gliomas described in example 4 were made. The sections were stained with hematoxylin and eosin and observed at a magnification of 313 times using immersion oil. In these conditions, cell apoptosis is shown by the existence of apoptotic bodies appearing as strongly chromogenic granules in the cell nucleus which is frequently fragmented.

Assay [5] deals with human lung cancer A549 cells. In words: Human tumor cell proliferation (XTT), A549. The format is cell-based. The conditions noted are these: 1-200 μM, 96 h. The procedure: (§1) The cell lines used were the human prostate cancer PC-3 cells and human lung cancer A549 cells. 2000 cells were seeded per well in 96-well plates and they were allowed to adhere overnight. Then the cells were treated or not (controls) with potassium 2,5-diacetoxybenzene sulfonate (DABS) (1-200 μM) and they were allowed to proliferate for 96 h. After this time, the PC-3 and A549 cell proliferation was evaluated by determining the final number of cells by means of the viability method of yellow tetrazolium salt (XTT). The data were expressed as a percentage of the control (without treatment).
In general terms: Tetrazolium assays rely on reduction of a dye to a coloured formazan, in cell work by metabolically active cells.

Assay [6] relates to subcutaneous tumors from human prostate cancer PC-3 cells. In words: Subcutaneous PC-3 prostate cancer cell implantation model in athymic mice. It counts as in vivo, athymic mice (Nu/Nu). Conditions: 100 mg/kg daily i.p. for 15 days, vs carrier. The protocol: 5×10^6 human prostate cancer PC-3 cells were subcutaneously injected in male athymic mice (Nu/Nu) of 6-8 weeks of age and weighing 20-26 g. Ten days after the implantation of the tumor cells, the mice were randomly split into two groups: one of them received a daily injection of potassium 2,5-diacetoxybenzene sulfonate (DABS) by intraperitoneal route at a dose of 100 mg/kg dissolved in saline (0.9% NaCl) whereas the other group received a daily injection of carrier (saline). The treatments were administered for 15 days. The volumes of the tumors induced by the implantation of PC-3 cells were measured through the skin on alternating days using a Vernier caliper. The volume was calculated using the formula V=(D×2d)/2, where D is the larger diameter in mm, d is the smaller diameter in mm and V is the volume in mm3. At the end of treatment, the mice were sacrificed and the tumors were weighed.

In assay [7] the test system is human prostate cancer PC-3 cells. In words: Human tumor cell proliferation (XTT), PC-3. It counts as cell-based. Conditions: 1-200 μM, 96 h. The procedure: as §1
In assay [8] the test system is subcutaneous gliomas from implanted rat glioma C6 cells. In words: Progression of established subcutaneous C6 gliomas in rats. It counts as in vivo. The conditions noted are these: 100 mg/kg/day i.p. for 10 days. The protocol: Rat C6 glioma cells were cultured as previously described (Cuevas P et al. Neurol Res, 2005). The C6 cells cultured to confluence in 75 cm^2 flasks were removed and implanted under the abdominal skin in anesthetized rats. The existence of a tumor in the implantation area was observed five days after the implantation of the tumor cells. Only the rats in which the existence of a tumor was observed were randomly assigned to be treated with daily intraperitoneal injections of 2,5-dihydroxybenzene sulfonate (DHBS; 100 mg/kg/day), 2,5-diacetoxybenzene sulfonate (DABS; 100 mg/kg/day) or the carrier (0.9% NaCl). After 10 days of treatment, the subcutaneous gliomas were removed and their volume was calculated according to the formula V=4/3π·(L/2)·(A/2)^2 (in mm^3) where L is the larger diameter and A is the smaller diameter, both expressed in mm.

fibroblast growth factor-1 (FGF-1), sequence (P05230 whole entry, species assumed): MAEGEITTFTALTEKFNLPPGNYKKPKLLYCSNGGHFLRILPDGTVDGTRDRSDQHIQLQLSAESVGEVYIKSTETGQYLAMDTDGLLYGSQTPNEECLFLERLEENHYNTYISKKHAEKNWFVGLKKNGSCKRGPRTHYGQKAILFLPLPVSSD

As for `O=C(O)C=Cc1cc(O)ccc1O` [2,5-DHC, 3-(2,5-dihydroxyphenyl)-2-propenoic acid], the “C6 cell proliferation relative to control” value was “less than half” with rat glioma C6 cells (50 μM) and “one tenth” in the assay on rat glioma C6 cells (100 μM).

Take `O=C([O-])c1cc(O)ccc1O.[K+]` [2,5-dihydroxybenzoate, potassium 2,5-dihydroxybenzoate]: the “C6 cell proliferation (absorbance at 595 nm)” value in the assay with rat glioma C6 cells (100, 200, 500 and 1000 μM) is recorded as “inhibited rat glioma C6 cell proliferation in a concentration-dependent manner”. Also, the “statistical significance of inhibition of C6 cell proliferation vs control” value in the assay with rat glioma C6 cells (500 and 1000 μM, p<0.001 (FIG. 2)) is given as “statistically significant”. Moreover, the “bFGF-induced fibrosis (fibroblasts in septa of connective tissue of adipose tissue)” value in assay [1] is listed as “reduces bFGF-induced fibrosis”.

As for `CC(=O)Oc1ccc(O)cc1S(=O)(=O)[O-].[K+]` [2A-5HBS, potassium 2-acetoxy-5-hydroxybenzene sulfonate], in the assay on rat glioma C6 cells, the “C6 cell proliferation (percentage of control absorbance at 595 nm)” value is recorded as “caused the inhibition of rat glioma cell proliferation”. The “inhibition of mitogenesis induced by FGF-1” value (“inhibition … by FGF-1” for short) in [2] is given as “inhibition of mitogenesis induced by FGF-1”. Moreover, in assay [3], the “acetoxyl groups retained when bound to FGF-1” value is “conserve the acetoxyl groups” and the “binding site on FGF-1 in the co-crystal” value is on record as “occupy a site that is very close to the one that has been described occupied by 2,5-dihydroxybenzene sulfonic acid”.

`CC(=O)Oc1ccc(O)c(S(=O)(=O)[O-])c1.[K+]` [5A-2HBS, potassium 5-acetoxy-2-hydroxybenzene sulfonate]: the “C6 cell proliferation (percentage of control absorbance at 595 nm)” value in the assay with rat glioma C6 cells is reported as “caused the inhibition of rat glioma cell proliferation”. Further, the “inhibition … by FGF-1” value in assay [2] was “inhibition of mitogenesis induced by FGF-1”. Also, in assay [3], the “acetoxyl groups retained when bound to FGF-1” value is reported as “conserve the acetoxyl groups” and the “binding site on FGF-1 in the co-crystal” value was “occupy a site that is very close to the one that has been described occupied by 2,5-dihydroxybenzene sulfonic acid”.

For `CC(=O)Oc1ccc(OC(C)=O)c(S(=O)(=O)[O-])c1.[K+]` [DABS, potassium 2,5-diacetoxybenzene sulfonate], in assay [2], the “inhibition … by FGF-1” value is “inhibition of mitogenesis induced by FGF-1”. Further, the “tumor cells in apoptosis in glioma sections” value in assay [4] is recorded as “a large number of tumor cells in apoptosis”. Besides, in assay [5], the “A549 cell proliferation (percentage of control)” value is recorded as “significant inhibition”. In addition, in assay [6] (start 10 days after implantation), the “tumor growth (tumor volume through the skin)” value is reported as “significantly reduced”. In addition, in [6] (p<0.05), the “weight of the extracted tumor when treatment ended” value is on record as “significant reduction of the weight”. Besides, in [7], the “PC-3 cell proliferation (percentage of control)” value was “significant inhibition”. In assay [3], the “acetoxyl groups retained when bound to FGF-1” value is “conserve the acetoxyl groups” and the “binding site on FGF-1 in the co-crystal” value was “occupy a site that is very close to the one that has been described occupied by 2,5-dihydroxybenzene sulfonic acid”. Moreover, the “rats tumor-free when treatment ended” value in [8] (all rats had established tumors before treatment) was found to be 4 rats. In addition, the “probability of being tumor-free (χ2 test), DABS group vs DHBS group” value in assay [8] (p<0.05) was “greater probability of being tumor-free”.

As to `O=S(=O)([O-])c1cc(O)ccc1O.[K+]` [DHBS, potassium 2,5-dihydroxybenzene sulfonate, reference compound], the “inhibition … by FGF-1” value in assay [2] is “inhibition of the mitogenesis”. Also, the “average size (volume) of subcutaneous gliomas” value in assay [8] (treatment from day 5 after implantation, vs carrier) is on record as “less than that of the rats treated with carrier”.
